pIC50: −log10 of the molar value.
Columns and labels:
[1] = molecular target: Brd4 bromodomain 1 (BRD4(1)) (Homo sapiens, UniProt O60885); experiment: Inhibition of tetra-acetylated histone H4 binding to Brd4 bromodomain 1, measured by FRET (HTRF); design: made in house; host or cells: E. coli BL21(DE3); conditions: 2 h at room temperature
Procedure, shortened: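 N-terminally His-tagged bromodomain (200 nM), expressed in E. coli and purified by Ni affinity and size exclusion, was incubated with biotinylated tetra-acetylated H4 peptide (25-50 nM), Eu-cryptate streptavidin and XL665 anti-His in HEPES pH 7.4 buffer with 0.2% DMSO. Reactions ran 2 h at room temperature. IC50 came from the 665/620 nm fluorescence decrease.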

Human AML MV-4-11 cells = experiment: Inhibition of cell proliferation in MV4-11 cells (CellTiter Aqueous One); format: cell-based; conditions: MV4-11, 72 h
Procedure, shortened: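 MV4-11 cells, 5×10^4 per well in IMDM with 10% FBS, were exposed to increasing compound concentrations or 0.1% DMSO for 72 h at 37 °C in triplicate. Viability was read by MTS (CellTiter Aqueous One) absorbance at 490 nm after 3-4 h. IC50 was derived from background-corrected signal relative to DMSO.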

hIL-6 mRNA = experiment: Inhibition of hIL-6 mRNA transcription in LPS-stimulated U937 macrophages; format: cell-based, Human; conditions: Homo sapiens, U-937, PMA-differentiated U937 cells, 1 h pretreatment, LPS 3 h, read-out: IL-6 activity
Experimental: Human leukemic monocyte lymphoma U937 cells (CRL-1593.2) were plated at a density of 3.2×10^4 cells per well in a 96-well plate in 100 μL RPMI-1640 containing 10% FBS and penicillin/streptomycin, and differentiated into macrophages for 3 days in 60 ng/mL PMA ([…]) at 37° C. in 5% CO2 prior to the addition of compound. The cells were pretreated for 1 h with increasing concentrations of test compound in 0.1% DMSO prior to stimulation with 1 ug/mL lipopolysaccharide from Escherichia coli. Triplicate wells were used for each concentration. The cells were incubated at 37° C., 5% CO2 for 3 h before the cells were harvested. At time of harvest, media was removed and cells were rinsed in 200 μL PBS. Cells were harvested using the mRNA Catcher PLUS kit according to manufacturer's instructions. The eluted mRNA was then used in a one-step quantitative real-time PCR reaction using components of the RNA UltraSense™ One-Step Kit (Life Technologies) together with Applied Biosystems TaqMan® primer-probes for hIL-6 and Cyclophilin. Real-time PCR plates were run on a ViiA™7 real time PCR machine (Applied Biosystems), data was analyzed, normalizing the Ct values for hlL-6 to an internal control, prior to determining the fold expression of each sample, relative to the control.

[2] = tested on: c-myc in Human AML MV4-11 cells; experiment: Inhibition of cMYC expression (mRNA, real-time PCR) in MV4-11 cells; format: cell-based; conditions: 3 h treatment, cMYC mRNA by real-time PCR
Procedure, shortened: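 MV4-11 cells in IMDM with 10% FBS were treated with increasing compound concentrations (DMSO 0.1%) for 3 h at 37 °C, in triplicate. Isolated mRNA was quantified by one-step TaqMan RT-qPCR, cMYC Ct normalized to cyclophilin, and fold expression given relative to DMSO control.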

Row | SMILES | pIC50 [1] | pIC50 (Human AML MV-4-11 cells) | pIC50 (hIL-6 mRNA) | pIC50 [2]
1 | Cc1nc2c(-c3cccnc3)cc(-c3c(C)noc3C)cc2[nH]1 [Example Compound 79, 3,5-dimethyl-4-(2-methyl-4-(pyridin-3-yl)-1H-benzo[d]imidazol-6-yl)isoxazole] | ≥ 6.52 | 5.52 to 6.52 | 5.52 to 6.52 | ≥ 6.52
2 | Cc1nc2c(-c3cc(F)ccc3C(F)(F)F)cc(-c3c(C)noc3C)cc2[nH]1 [Example Compound 80, 4-(4-(5-fluoro-2-(trifluoro-methyl)phenyl)-2-methyl-1H-benzo[d]imidazol-6-yl)-3,5-dimethyl isoxazole] | ≥ 6.52 | 5.52 to 6.52 | 5.52 to 6.52 | ≥ 6.52
3 | Cc1nc2c(-c3ncccc3C)cc(-c3c(C)noc3C)cc2[nH]1 [Example Compound 84, 3,5-dimethyl-4-(2-methyl-4-(3-methyl-pyridin-2-yl)-1H-benzo[d]imidazol-6 yl)isoxazole] | 5.52 to 6.52 | 4.52 to 5.52 | 5.52 to 6.52 | 5.52 to 6.52
4 | Cc1nc2c(-c3cnccn3)cc(-c3c(C)noc3C)cc2[nH]1 [Example Compound 85, 3,5-dimethyl-4-(2-methyl-4-(pyrazin-2-yl)-1H-benzo[d]imidazol-6-yl)isoxazole] | ≥ 6.52 | 4.52 to 5.52 | 5.52 to 6.52 | 4.52 to 5.52
5 | Cc1noc(C)c1-c1cc(-c2c(C)noc2C)c2cn[nH]c2c1 [Example Compound 87, 4,4′-(1H-indazole-4,6-diyl)bis(3,5-dimethylisoxazole)] | ≥ 6.52 | 5.52 to 6.52 | 5.52 to 6.52 | 5.52 to 6.52
6 | Cc1noc(C)c1-c1cc(-c2c(C)noc2C)c2c(c1)ncn2C [Example Compound 93, 4,4′-(1-methyl-1H-benzo[d]imidazole-5,7-diyl)bis(3,5-dimethylisoxazole)] | ≥ 6.52 | 5.52 to 6.52 | ≥ 6.52 | ≥ 6.52
7 | Cc1nc2c(-c3c(C)ncnc3C)cc(-c3c(C)noc3C)cc2[nH]1 [Example Compound 98, 4-(4-(4,6-dimethyl-pyrimidin-5-yl)-2-methyl-1H-benzo[d]imidazol-6-yl)-3,5-dimethyl isoxazole] | ≥ 6.52 | 5.52 to 6.52 | 5.52 to 6.52 | 5.52 to 6.52
8 | Cc1nc2c(-c3c(C)nc(N)nc3C)cc(-c3c(C)noc3C)cc2[nH]1 [Example Compound 99, 5-(6-(3,5-dimethyl-isoxazol-4-yl)-2-methyl-1H-benzo[d]imidazol-4-yl)-4,6-dimethyl pyrimidin-2-amine] | ≥ 6.52 | ≥ 6.52 | ≥ 6.52 | ≥ 6.52
9 | Cc1nc2c(-c3scnc3C)cc(-c3c(C)noc3C)cc2[nH]1 [Example Compound 104, 3,5-dimethyl-4-(2-methyl-4-(4-methyl-thiazol-5-yl)-1H-benzo[d]imidazol-6-yl)isoxazole] | ≥ 6.52 | 5.52 to 6.52 | ≥ 6.52 | 5.52 to 6.52
10 | CCOc1ncccc1-c1cc(-c2c(C)noc2C)cc2[nH]c(C)nc12 [Example Compound 109, 4-(4-(2-ethoxy-pyridin-3-yl)-2-methyl-1H-benzo[d]imidazol-6-yl)-3,5-dimethyl isoxazole] | ≥ 6.52 | 5.52 to 6.52 | ≥ 6.52 | 5.52 to 6.52

Now from value to compound:

Row | pIC50 [1] | pIC50 (Human AML MV-4-11 cells) | pIC50 (hIL-6 mRNA) | pIC50 [2] | SMILES
11 | ≥ 6.52 | 5.52 to 6.52 | 5.52 to 6.52 | ≥ 6.52 | Cc1nc2c(-c3ccccc3OC(F)(F)F)cc(-c3c(C)noc3C)cc2[nH]1 [Example Compound 77, 3,5-dimethyl-4-(2-methyl-4-(2-(trifluoro-methoxy)phenyl)-1H-benzo[d]imidazol-6-yl)isoxazole]
12 | ≥ 6.52 | 5.52 to 6.52 | 5.52 to 6.52 | 5.52 to 6.52 | Cc1nc2c(-c3ccccc3)cc(-c3c(C)noc3C)cc2[nH]1 [Example Compound 88, 3,5-dimethyl-4-(2-methyl-4-phenyl-1H-benzo[d]imidazol 6-yl)isoxazole]
13 | ≥ 6.52 | 5.52 to 6.52 | 5.52 to 6.52 | ≥ 6.52 | Cc1nc2c(-c3ccccc3C)cc(-c3c(C)noc3C)cc2[nH]1 [Example Compound 89, 3,5-dimethyl-4-(2-methyl-4-(o-tolyl)-1H-benzo[d]imidazol-6-yl)isoxazole]
14 | ≥ 6.52 | 5.52 to 6.52 | ≥ 6.52 | ≥ 6.52 | Cc1nc2c(-c3ccccc3F)cc(-c3c(C)noc3C)cc2[nH]1 [Example Compound 91, 4-(4-(2-fluoro-phenyl)-2-methyl-1H-benzo[d]imidazol-6-yl)-3,5-dimethyl isoxazole]
15 | ≥ 6.52 | 5.52 to 6.52 | 5.52 to 6.52 | 5.52 to 6.52 | Cc1nc2c(-c3cc(F)ccc3C#N)cc(-c3c(C)noc3C)cc2[nH]1 [Example Compound 94, 2-(6-(3,5-dimethyl-isoxazol-4-yl)-2-methyl-1H-benzo[d]imidazol-4-yl)-4-fluoro-benzonitrile]
16 | ≥ 6.52 | 5.52 to 6.52 | ≥ 6.52 | ≥ 6.52 | Cc1nc2c(-c3cc(Cl)ccc3C)cc(-c3c(C)noc3C)cc2[nH]1 [Example Compound 105, 4-(4-(5-chloro-2-methyl-phenyl)-2-methyl-1H-benzo[d]imidazol-6-yl)-3,5-dimethyl isoxazole]
17 | ≥ 6.52 | 5.52 to 6.52 | 5.52 to 6.52 | 5.52 to 6.52 | Cc1nc2c(-c3cccc(C)c3F)cc(-c3c(C)noc3C)cc2[nH]1 [Example Compound 106, 4-(4-(2-fluoro-3-methyl-phenyl)-2-methyl-1H-benzo[d]imidazol-6-yl)-3,5-dimethyl isoxazole]
18 | ≥ 6.52 | 5.52 to 6.52 | 5.52 to 6.52 | 5.52 to 6.52 | COc1ccc(Cl)cc1-c1cc(-c2c(C)noc2C)cc2[nH]c(C)nc12 [Example Compound 107, 4-(4-(5-chloro-2-methoxy-phenyl)-2-methyl-1H-benzo[d]imidazol-6-yl)-3,5-dimethyl isoxazole]
19 | ≥ 6.52 | 5.52 to 6.52 | 5.52 to 6.52 | 5.52 to 6.52 | COc1ccc(F)c(-c2cc(-c3c(C)noc3C)cc3[nH]c(C)nc23)c1 [Example Compound 108, 4-(4-(2-fluoro-5-methoxy-phenyl)-2-methyl-1H-benzo[d]imidazol-6-yl)-3,5-dimethyl isoxazole]
20 | ≥ 6.52 | 5.52 to 6.52 | 5.52 to 6.52 | 5.52 to 6.52 | Cc1nc2c(-c3cccc4ccncc34)cc(-c3c(C)noc3C)cc2[nH]1 [Example Compound 110, 4-(4-(iso-quinolin-8-yl)-2-methyl-1H-benzo[d]imidazol-6-yl)-3,5-dimethyl isoxazole]
21 | ≥ 6.52 | 5.52 to 6.52 | ≥ 6.52 | ≥ 6.52 | COc1ccc(F)cc1-c1cc(-c2c(C)noc2C)cc2[nH]c(C)nc12 [Example Compound 112, 4-(4-(5-fluoro-2-methoxy-phenyl)-2-methyl-1H-benzo[d]imidazol-6-yl)-3,5-dimethyl-isoxazole]
22 | ≥ 6.52 | ≥ 6.52 | ≥ 6.52 | ≥ 6.52 | COCc1ccccc1-c1cc(-c2c(C)noc2C)cc2[nH]c(C)nc12 [Example Compound 117, 4-(4-(2-(methoxy-methyl)phenyl)-2-methyl-1H-benzo[d]imidazol-6-yl)-3,5-dimethyl-isoxazole]

Source: patent US9999616B2 (ZENITH EPIGENETICS LTD., priority 2013, dated 2018)
